Test results taken from patent publication US20220289766A1 (INFLAZOME LIMITED, priority 2019, published 2022).
Counter-ions that a name gives are not always drawn.

What was measured:
NLRP3 [1] = molecular target: T1, NLRP3 (Homo sapiens, UniProt Q96P20); experiment: THP-1 cells pyroptosis assay; type: cell-based; parameters: Seed THP-1 cells (25,000 cells/well) containing 1.0 μg/ml LPS in 40 μl of RPMI medium; host or cells: THP-1 cells; conditions: LPS 1 μg/ml, compound 3 hrs, nigericin 5 μM 1 hr, resazurin readout
Procedure: THP-1 cells (ATCC #TIB-202) were grown in RPMI containing L-glutamine (Gibco #11835) supplemented with 1 mM sodium pyruvate (Sigma #S8636) and penicillin (100 units/ml)/streptomycin (0.1 mg/ml) (Sigma #P4333) in 10% Fetal Bovine Serum (FBS) (Sigma #F0804). The cells were routinely passaged and grown to confluency (˜10^6 cells/ml). On the day of the experiment, THP-1 cells were harvested and resuspended into RPMI medium (without FBS). The cells were then counted and viability ([…]) checked by Trypan blue (Sigma #T8154). Appropriate dilutions were made to give a concentration of 625,000 cells/ml. To this diluted cell solution was added LPS (Sigma #L4524) to give a 1 μg/ml Final Assay Concentration (FAC). 40 μl of the final preparation was aliquoted into each well of a 96-well plate. The plate thus prepared was used for compound screening.
The following method step-by-step assay was followed for compound screening. • 1. Seed THP-1 cells (25,000 cells/well) containing 1.0 μg/ml LPS in 40 μl of RPMI medium (without FBS) in 96-well, black walled, clear bottom cell culture plates coated with poly-D-lysine (VWR #734-0317) • 2. Add 5 μl compound (8 points half-log dilution, with 10 μM top dose) or vehicle (DMSO 0.1% FAC) to the appropriate wells • 3. Incubate for 3 hrs at 37° C., 5% CO2 • 4. Add 5 μl nigericin (Sigma #N7143) (FAC 5 μM) to all wells • 5. Incubate for 1 hr at 37° C., 5% CO2 • 6. At the end of the incubation period, spin plates at 300×g for 3 mins and remove supernatant • 7. Then add 50 μl of resazurin (Sigma #R7017) (FAC 100 μM resazurin in RPMI medium without FBS) and incubate plates for a further 1-2 hrs at 37° C. and 5% CO2 • 8. Plates were read in an Envision reader at Ex 560 nm and Em 590 nm • 9. IC50 data is fitted to a non-linear regression equation (log inhibitor vs response-variable slope 4-parameters)

NLRP3 [2] = molecular target: T1, NLRP3; experiment: Human whole blood IL-1β release assay; type: cell-based; parameters: Plate out 80 μl of whole blood containing 1 μg/ml of LPS in 96-well, clear bottom cell culture plate; from tissue; host or cells: human whole blood from healthy donors; conditions: LPS 1 μg/ml, compound 3 hrs, nigericin 10 μM 1 hr, IL-1β by AlphaLisa, read-out: HWB IC50
Procedure: For systemic delivery, the ability to inhibit NLRP3 when the compounds are present within the bloodstream is of great importance. For this reason, the NLRP3 inhibitory activity of a number of compounds in human whole blood was investigated in accordance with the following protocol.
Human whole blood in Li-heparin tubes was obtained from healthy donors from a volunteer donor panel. • 1. Plate out 80 μl of whole blood containing 1 μg/ml of LPS in 96-well, clear bottom cell culture plate (Corning #3585) • 2. Add 10 μl compound (8 points half-log dilution with 10 μM top dose) or vehicle (DMSO 0.1% FAC) to the appropriate wells • 3. Incubate for 3 hrs at 37° C., 5% CO2 • 4. Add 10 μl nigericin (Sigma #N7143) (10 μM FAC) to all wells • 5. Incubate for 1 hr at 37° C., 5% CO2 • 6. At the end of the incubation period, spin plates at 300×g for 5 mins to pellet cells and remove […] of supernatant and add to 96-well v-bottom plates for IL-1β analysis (note: these plates containing the supernatants can be stored at −80° C. to be analysed at a later date) • 7. IL-1β was measured according to the manufacturer protocol (Perkin Elmer-AlphaLisa IL-1 Kit AL220F-5000) • 8. IC50 data is fitted to a non-linear regression equation (log inhibitor vs response-variable slope 4-parameters)

T1 sequence (Q96P20 whole entry): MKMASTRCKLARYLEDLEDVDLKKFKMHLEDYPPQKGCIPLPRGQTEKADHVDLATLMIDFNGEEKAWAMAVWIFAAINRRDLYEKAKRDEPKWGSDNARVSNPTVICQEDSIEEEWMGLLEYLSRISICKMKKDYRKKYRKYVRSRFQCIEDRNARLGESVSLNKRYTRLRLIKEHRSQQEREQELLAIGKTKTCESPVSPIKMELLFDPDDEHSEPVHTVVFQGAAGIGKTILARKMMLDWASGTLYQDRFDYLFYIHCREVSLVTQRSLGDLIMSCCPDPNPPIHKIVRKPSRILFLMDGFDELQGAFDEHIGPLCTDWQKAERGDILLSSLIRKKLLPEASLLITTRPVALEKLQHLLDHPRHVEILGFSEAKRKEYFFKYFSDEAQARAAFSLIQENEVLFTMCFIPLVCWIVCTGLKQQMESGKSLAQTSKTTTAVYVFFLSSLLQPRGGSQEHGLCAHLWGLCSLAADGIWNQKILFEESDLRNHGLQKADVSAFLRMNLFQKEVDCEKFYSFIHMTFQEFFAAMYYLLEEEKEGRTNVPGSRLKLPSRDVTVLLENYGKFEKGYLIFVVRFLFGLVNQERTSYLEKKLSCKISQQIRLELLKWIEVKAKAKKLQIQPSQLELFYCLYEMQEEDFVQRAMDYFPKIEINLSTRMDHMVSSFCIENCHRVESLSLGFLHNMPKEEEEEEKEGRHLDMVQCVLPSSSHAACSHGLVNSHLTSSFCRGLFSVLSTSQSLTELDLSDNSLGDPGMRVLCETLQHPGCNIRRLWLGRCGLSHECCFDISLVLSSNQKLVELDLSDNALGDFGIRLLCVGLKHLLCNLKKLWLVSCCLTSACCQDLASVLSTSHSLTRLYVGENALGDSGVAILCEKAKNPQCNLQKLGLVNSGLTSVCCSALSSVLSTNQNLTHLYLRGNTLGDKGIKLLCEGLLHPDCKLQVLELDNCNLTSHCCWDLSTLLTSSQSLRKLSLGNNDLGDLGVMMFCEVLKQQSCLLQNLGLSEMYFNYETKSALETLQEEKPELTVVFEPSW

SMILES	IC50 (NLRP3 [1]) [nM]	IC50 (NLRP3 [2]) [nM]
CC1(C)COc2cc(ccn2)-c2ccc3c(c2NC(=O)NS(=O)(=O)c2nn1cc2F)CCC3 [Example 27, 16-fluoro-19,19-dimethyl-21-oxa-14λ^6-thia-11,13,18,23,27-pentaaza-pentacyclo[20.3.1.1^15,18.0^2,10.0^5,9]-heptacosa-1(25),2,4,9,15(27),16,22(26),23-octaene-12,14,14-trione, sodium salt]	≤ 100	100 to 500
Cc1cc2c(c3c1-c1ccnc(c1)OCCn1cc(F)c(n1)S(=O)(=O)NC(=O)N3)CCC2 [Example 29, 16-fluoro-3-methyl-21-oxa-14λ^6-thia-11,13,18,23,27-pentaaza-pentacyclo[20.3.1.1^15,18.0^2,10.0^5,9]-heptacosa-1(25),2(10),3,5(9),15(27),16,22(26),23-octaene-12,14,14-trione, sodium salt]	≤ 100	100 to 500
CC(C)c1cc(F)cc2c1NC(=O)NS(=O)(=O)c1nn(cc1F)C(C)(C)COc1cc-2ccn1 [Example 30, 4,13-difluoro-16,16-dimethyl-6-(propan-2-yl)-18-oxa-11λ^6-thia-8,10,15,20,24-pentaazatetracyclo-[17.3.1.1^12,15.0^2,7]tetracosa-1(22),2(7),3,5,12(24),13,19 (23),20-octaene-9,11,11-trione, sodium salt]	≤ 100	100 to 500
O=C1Nc2c(ccc3c2CCC3)-c2ccnc(c2)OCCc2cccc(c2)S(=O)(=O)N1 [Example 31, 22-oxa-14λ^6-thia-11,13,24-triaza-pentacyclo-[21.3.1.1^15,19.0^2,10.0^5,9]-octacosa-1(26),2,4,9,15(28),16,18,23(27),24-nonaene-12,14,14-trione, sodium salt]	≤ 100	100 to 500
Cc1cnc2cc1-c1ccc3c(c1NC(=O)NS(=O)(=O)c1ccn(n1)C(C)(C)CO2)CCC3 [Example 33, 19,19,25-trimethyl-21-oxa-14λ^6-thia-11,13,18,23,27-pentaaza-pentacyclo-[20.3.1.1^15,18.0^2,10.0^5,9]-heptacosa-1(26),2,4,9,15(27),16,22,24-octaene-12,14,14-trione, sodium salt]	500 to 1000	1000 to 5000
CC1(C)COc2cc(ccn2)-c2c(F)cc3c(c2NC(=O)NS(=O)(=O)c2ccn1n2)CCC3 [Example 34, 3-fluoro-19,19-dimethyl-21-oxa-14λ^6-thia-11,13,18,23,27-pentaazapentacyclo-[20.3.1.1^15,18.0^2,10.0^5,9]heptacosa-1(25),2,4,9,15(27),16,22(26),23-octaene-12,14,14-trione]	≤ 100	100 to 500
Cc1cc2cc(n1)OCC(C)(C)n1ccc(n1)S(=O)(=O)NC(=O)Nc1c-2ccc2c1CCC2 [Example 36, 19,19,24-trimethyl-21-oxa-14λ^6-thia-11,13,18,23,27-pentaazapentacyclo-[20.3.1.1^15,18.0^2,10.0^5,9]heptacosa-1(26),2,4,9,15(27),16,22,24-octaene-12,14,14-trione]	≤ 100	500 to 1000
Cc1cc2c(c3c1-c1ccnc(c1)OCC(C)(C)n1ccc(n1)S(=O)(=O)NC(=O)N3)CCO2 [Example 37, 3,19,19-trimethyl-6,21-dioxa-14λ^6-thia-11,13,18,23,27-pentaaza-pentacyclo[20.3.1.1^15,18.0^2,10.0^5,9]-heptacosa-1(25),2(10),3,5(9),15(27),16,22(26),23-octaene-12,14,14-trione, sodium salt]	≤ 100	≤ 100
O=C1Nc2c3c(cc(F)c2-c2ccnc(c2)OCCn2cc(F)c(n2)S(=O)(=O)N1)CCC3 [Example 40, 3,16-difluoro-21-oxa-14λ^6-thia-11,13,18,23,27-pentaaza-pentacyclo[20.3.1.1^15,18.0^2,10.0^5,9]-heptacosa-1(25),2(10),3,5(9),15(27),16,22(26),23-octaene-12,14,14-trione]	≤ 100	100 to 500
CC(C)c1cc(F)cc2c1NC(=O)NS(=O)(=O)c1ccn(n1)C(C)(C)COc1cc-2ccn1 [Example 43, 4-fluoro-16,16-dimethyl-6-(propan-2-yl)-18-oxa-11λ^6-thia-8,10,15,20,24-pentaazatetracyclo-[17.3.1.1^12,15.0^2,7]tetracosa-1(22),2(7),3,5,12(24),13,19(23),20-octaene-9,11,11-trione]	100 to 500	100 to 500

Further lines, results first:

IC50 (NLRP3 [1]) [nM]	IC50 (NLRP3 [2]) [nM]	SMILES
≤ 100	100 to 500	Cc1cc2c(c3c1-c1ccnc(c1)OCC(C)(C)n1cc(F)c(n1)S(=O)(=O)NC(=O)N3)CCC2 [Example 26]
≤ 100	100 to 500	Cc1cc2c(c3c1-c1ccnc(c1)OCCn1ccc(n1)S(=O)(=O)NC(=O)N3)CCC2 [Example 28, 3-methyl-21-oxa-14λ^6-thia-11,13,18,23,27-pentaazapentacyclo-[20.3.1.1^15,18.0^2,10.0^5,9]heptacosa-1(25),2(10),3,5(9),15(27),16,22(26),23-octaene-12,14,14-trione, sodium salt]
100 to 500	100 to 500	CC1(C)COc2nccc(c2F)-c2ccc3c(c2NC(=O)NS(=O)(=O)c2ccn1n2)CCC3 [Example 32, 26-fluoro-19,19-dimethyl-21-oxa-14λ^6-thia-11,13,18,23,27-pentaaza-pentacyclo[20.3.1.1^15,18.0^2,10.0^5,9]-heptacosa-1(26),2,4,9,15(27),16,22,24-octaene-12,14,14-trione, sodium salt]
100 to 500	1000 to 5000	CC1(C)COc2cc(c(F)cn2)-c2ccc3c(c2NC(=O)NS(=O)(=O)c2ccn1n2)CCC3 [Example 38, 25-fluoro-19,19-dimethyl-21-oxa-14λ^6-thia-11,13,18,23,27-pentaaza-pentacyclo[20.3.1.1^15,18.0^2,10.0^5,9]-heptacosa-1(25),2,4,9,15(27),16,22(26),23-octaene-12,14,14-trione, sodium salt]
≤ 100	100 to 500	O=C1Nc2c(ccc3c2CCC3)-c2ccnc(c2)OCC2(CCOCC2)n2ccc(n2)S(=O)(=O)N1 [Example 39, 21′-oxa-14′λ^6-thia-11′,13′,18′,23′,27′-pentaaza-spiro[oxane-4,19′-pentacyclo-[20.3.1.1^15,18.0^2,10.0^5,9]-heptacosan]-1′(25′),2′,4′,9′,15′(27′),16′,22′(26′),23′-octaene-12′,14′,14′-trione]
≤ 100	100 to 500	CC1(C)COc2cc(ccn2)-c2c(F)cc3c(c2NC(=O)NS(=O)(=O)c2nn1cc2F)CCC3 [Example 41, 3,16-difluoro-19,19-dimethyl-21-oxa-14λ^6-thia-11,13,18,23,27-pentaazapentacyclo-[20.3.1.1^15,18.0^2,10.0^5,9]heptacosa-1(25),2,4,9,15(27),16,22(26),23-octaene-12,14,14-trione, sodium salt]
≤ 100	100 to 500	O=C1Nc2c(ccc3c2CCC3)-c2cc(F)nc(c2)OCCn2cc(F)c(n2)S(=O)(=O)N1 [Example 42, 16,24-difluoro-21-oxa-14λ^6-thia-11,13,18,23,27-pentaazapentacyclo-[20.3.1.1^15,18.0^2,10.0^5,9]heptacosa-1(26),2,4,9,15(27),16,22,24-octaene-12,14,14-trione]
